The target in experiment [1] is Metabotropic glutamate receptor 4 (Homo sapiens, UniProt Q14833). Put plainly: Modulation of the Metabotropic Glutamate Receptor mGluR4: Potency at human mGluR4. Modulation of intracellular Ca2+ using Fluo-4, AM, in CHO expressing recombinant receptor [Related pubchem assays (depositor defined):AID2437, AID2807]. It counts as functional, cell-based.
In experiment [2] the target is Metabotropic glutamate receptor 4 (Rattus norvegicus, UniProt P31423). Put plainly: Modulation of the Metabotropic Glutamate Receptor mGluR4: Rat PAM Potency. [Related pubchem assays (depositor defined):AID2437, AID2807]. It counts as functional.
Chain of Metabotropic glutamate receptor 4 (Rattus norvegicus, UniProt P31423) (P31423 whole entry): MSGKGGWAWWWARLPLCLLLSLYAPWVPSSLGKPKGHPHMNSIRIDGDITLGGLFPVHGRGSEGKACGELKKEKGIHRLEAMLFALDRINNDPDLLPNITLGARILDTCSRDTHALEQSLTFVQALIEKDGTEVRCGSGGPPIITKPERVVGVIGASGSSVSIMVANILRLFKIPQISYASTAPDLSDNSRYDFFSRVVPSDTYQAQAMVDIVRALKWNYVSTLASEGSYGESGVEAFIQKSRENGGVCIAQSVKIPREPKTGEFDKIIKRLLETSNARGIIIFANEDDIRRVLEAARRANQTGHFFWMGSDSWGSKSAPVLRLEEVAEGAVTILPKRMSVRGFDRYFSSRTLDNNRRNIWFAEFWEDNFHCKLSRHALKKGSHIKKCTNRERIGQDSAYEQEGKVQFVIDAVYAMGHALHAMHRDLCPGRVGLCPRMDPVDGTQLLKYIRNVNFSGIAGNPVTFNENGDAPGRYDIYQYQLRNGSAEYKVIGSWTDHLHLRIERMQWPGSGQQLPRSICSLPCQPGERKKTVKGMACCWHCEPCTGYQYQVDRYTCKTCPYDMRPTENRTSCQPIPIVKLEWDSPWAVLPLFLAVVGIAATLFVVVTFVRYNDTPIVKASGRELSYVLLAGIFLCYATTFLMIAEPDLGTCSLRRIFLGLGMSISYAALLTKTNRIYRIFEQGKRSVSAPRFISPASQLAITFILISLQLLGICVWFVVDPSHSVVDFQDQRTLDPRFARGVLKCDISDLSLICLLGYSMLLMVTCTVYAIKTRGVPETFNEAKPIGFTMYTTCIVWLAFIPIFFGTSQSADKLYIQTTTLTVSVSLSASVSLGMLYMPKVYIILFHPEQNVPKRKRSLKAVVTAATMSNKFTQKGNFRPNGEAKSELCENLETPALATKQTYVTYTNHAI
Experiment [3] concerns the target Dual specificity protein phosphatase 3 (Homo sapiens, UniProt P51452). The experiment in a line: VHR1 inhibitor Ki determination, SAR follow-up, biochemical, colorimetric (AID 2004).
Another experiment has as its target T1, Caspase-3 (Homo sapiens, UniProt P42574).
T1 sequence (P42574 whole entry): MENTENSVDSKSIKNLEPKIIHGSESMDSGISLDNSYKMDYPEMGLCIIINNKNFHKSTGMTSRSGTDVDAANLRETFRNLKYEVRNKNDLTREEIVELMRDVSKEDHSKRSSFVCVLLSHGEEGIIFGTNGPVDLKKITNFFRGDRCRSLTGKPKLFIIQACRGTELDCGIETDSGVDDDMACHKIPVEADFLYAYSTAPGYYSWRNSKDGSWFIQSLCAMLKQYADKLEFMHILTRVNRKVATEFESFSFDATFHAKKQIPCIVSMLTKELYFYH
Put plainly: procaspase-3 activation potency of dual hits, dose response, counter-screen for dual procaspase-3/7 activator project, biochemical, absorbance, PC-3 D3A mutant (AID 504328). On the technique in general: The purpose of a counterscreen is to sort out artefacts and off-target activity.

The target of experiment [4] is T2, Microphthalmia-associated transcription factor (Homo sapiens, UniProt O75030).
T2 sequence (O75030 whole entry): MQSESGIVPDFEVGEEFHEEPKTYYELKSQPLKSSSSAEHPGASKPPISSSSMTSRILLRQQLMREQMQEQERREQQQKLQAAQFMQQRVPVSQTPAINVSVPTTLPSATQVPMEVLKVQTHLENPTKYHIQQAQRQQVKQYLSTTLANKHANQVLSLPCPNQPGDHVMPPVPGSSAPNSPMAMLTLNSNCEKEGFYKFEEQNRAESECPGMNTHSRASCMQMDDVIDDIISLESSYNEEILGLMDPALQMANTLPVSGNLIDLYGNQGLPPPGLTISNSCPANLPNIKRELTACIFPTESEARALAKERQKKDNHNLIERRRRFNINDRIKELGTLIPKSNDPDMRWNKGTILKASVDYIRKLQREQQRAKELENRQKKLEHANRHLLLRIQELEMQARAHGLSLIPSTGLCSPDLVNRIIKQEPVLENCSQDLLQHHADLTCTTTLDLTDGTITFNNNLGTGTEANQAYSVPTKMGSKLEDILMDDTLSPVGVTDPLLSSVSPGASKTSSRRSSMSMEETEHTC
The experiment in a line: TRPM1 promoter luciferase signal decrease, dose response, MITF inhibitor project, cell-based, SK-MEL-5, cherry-picked, set 3 (AID 493073).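 Also: SK-MEL-5 melanoma cells with luciferase driven by the MITF target TRPM1 promoter.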 It counts as functional.

The target in a further experiment is Caspase-7 (Homo sapiens, UniProt P55210). Put plainly: procaspase-7 activators, dose response, dual procaspase-3/-7 activator project, biochemical, absorbance, human (AID 504330).
Experiment [5] has as its target T3, Heat shock factor protein 1 (Mus musculus, UniProt P38532).
T3 sequence (P38532 whole entry): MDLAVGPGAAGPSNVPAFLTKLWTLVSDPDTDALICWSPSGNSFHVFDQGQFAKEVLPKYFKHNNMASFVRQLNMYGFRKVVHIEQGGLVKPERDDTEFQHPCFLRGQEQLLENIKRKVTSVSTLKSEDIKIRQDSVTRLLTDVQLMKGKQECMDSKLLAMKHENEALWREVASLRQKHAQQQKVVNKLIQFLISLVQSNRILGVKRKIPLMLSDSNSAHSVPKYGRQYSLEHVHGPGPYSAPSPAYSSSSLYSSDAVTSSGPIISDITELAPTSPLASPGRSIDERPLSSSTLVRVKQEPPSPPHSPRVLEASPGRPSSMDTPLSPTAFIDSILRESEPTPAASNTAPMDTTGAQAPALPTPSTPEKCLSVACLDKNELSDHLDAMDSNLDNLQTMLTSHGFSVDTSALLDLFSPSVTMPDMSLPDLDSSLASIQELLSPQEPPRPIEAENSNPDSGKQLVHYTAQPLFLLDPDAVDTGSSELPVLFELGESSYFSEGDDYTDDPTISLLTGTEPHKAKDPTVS
Put plainly: inhibition of MG132-induced HSE-luciferase signal, confirmation, cell-based, NIH3T3, luminescence, dose retest (AID 2382).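 Also: NIH3T3 fibroblasts with HSF1-driven luciferase reporter stressed by proteasome inhibitor MG132; luminescence from HSF1-driven luciferase expression after 8 hours of MG132 stress.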 It counts as functional.

A short description of experiment [6]: cytotoxicity in KRAS-transformed pancreatic duct cells, primary screen, cell-based, fluorescence, HTS (AID 431). The following applies: Homo sapiens. It counts as functional.
Experiment [7] relates to Streptococcus sp. 'group A'. Put plainly: growth inhibition of control SK(-) GAS strain, dose response, counter-screen for streptokinase expression inhibitor project, luminescence, kanamycin, BacTiterGlo, confirmation (AID 1900). It counts as functional, organism-based.
Another experiment concerns Streptococcus. Put plainly: Group A Streptococcus viability loss, dose response, counter-screen for streptokinase expression inhibitor project, luminescence, BacTiterGlo (AID 1915).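 Also: potency for reduction of bacterial viability or growth.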 It counts as functional, organism-based.
Experiment [8] in a line: cytotoxicity in HPDE-C7 cells, cell-based, fluorescence, HTS (AID 430). The following applies: Homo sapiens. It counts as functional.
Another experiment deals with X-box-binding protein 1 (Homo sapiens, UniProt P17861). It counts as functional, Cricetulus griseus.
Chain of X-box-binding protein 1 (P17861 whole entry): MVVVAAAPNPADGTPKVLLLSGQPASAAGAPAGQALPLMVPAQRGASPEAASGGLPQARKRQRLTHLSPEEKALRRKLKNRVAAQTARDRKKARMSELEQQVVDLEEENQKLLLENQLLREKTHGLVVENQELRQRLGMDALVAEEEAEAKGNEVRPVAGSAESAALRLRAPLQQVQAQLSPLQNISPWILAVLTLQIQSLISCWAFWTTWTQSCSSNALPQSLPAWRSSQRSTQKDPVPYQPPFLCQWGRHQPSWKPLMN
For experiment [9], the target named is T4, Polyadenylate-binding protein 1 (Homo sapiens, UniProt P11940). The experiment in a line: PABP poly(A) RNA binding inhibitors, primary screen, biochemical, fluorescence polarization, uHTS (AID 2014). Background: In fluorescence polarisation assays a small probe gives low polarisation when free and higher when bound to something large.
T4 sequence (P11940 whole entry): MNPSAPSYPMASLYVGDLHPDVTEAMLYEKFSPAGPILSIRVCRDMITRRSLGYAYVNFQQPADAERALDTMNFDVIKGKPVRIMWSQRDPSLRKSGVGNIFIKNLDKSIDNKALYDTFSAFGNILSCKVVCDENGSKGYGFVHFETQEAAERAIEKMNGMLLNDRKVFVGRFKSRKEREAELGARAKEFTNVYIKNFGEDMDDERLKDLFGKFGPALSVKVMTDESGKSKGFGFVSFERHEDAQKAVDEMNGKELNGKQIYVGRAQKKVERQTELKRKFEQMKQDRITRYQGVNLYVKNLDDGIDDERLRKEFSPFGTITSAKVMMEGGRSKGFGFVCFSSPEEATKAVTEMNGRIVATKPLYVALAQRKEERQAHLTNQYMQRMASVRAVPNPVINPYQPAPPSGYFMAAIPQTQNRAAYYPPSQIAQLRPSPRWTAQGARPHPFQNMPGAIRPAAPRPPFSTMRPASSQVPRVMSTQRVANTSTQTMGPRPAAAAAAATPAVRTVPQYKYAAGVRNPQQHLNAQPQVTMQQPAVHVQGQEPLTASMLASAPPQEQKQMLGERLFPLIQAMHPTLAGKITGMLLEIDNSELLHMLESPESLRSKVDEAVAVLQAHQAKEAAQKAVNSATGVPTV
In experiment [10] the target is Eukaryotic translation initiation factor 4H (Homo sapiens, UniProt Q15056). Put plainly: human eIF4H binding inhibitors, primary screen, translation initiation inhibitor project, biochemical, uHTS, fluorescence polarization (AID 2012).
Experiment [11] has as its target Photoreceptor-specific nuclear receptor (Homo sapiens, UniProt Q9Y5X4). It counts as functional.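 Also: potency for compounds that break the NR2E3 corepressor complex and count as activators.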
The target in experiment [12] is Peroxisome proliferator-activated receptor gamma/Nuclear receptor corepressor 2 (Homo sapiens, UniProt P37231+Q9Y618). It counts as functional.
Experiment [13] concerns the target T4, Polyadenylate-binding protein 1. The experiment in a line: PABP1 MLLE–PAM2 binding inhibitor potency, dose response, biochemical, fluorescence polarization, FITC-PAM2 peptide (AID 602259). The following applies: read-out: IC50_Mean. It counts as functional.
Experiment [14] shares this target. The experiment in a line: PABP1 MLLE–PAM2 interaction inhibitors, dose response, miRNA deadenylation inhibitor project, biochemical, fluorescence polarization, Cy5-PAM2 peptide, secondary (AID 602260). It counts as functional. The following applies: read-out: IC50_Mean.

Each structure is given as a SMILES string. Activity calls are given as the source filed them. Bounds are passed on as bounds.
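For Absolute IC50 (XBP1) in this document: confirmatory dose-response counter-screen serving a CHOP assay.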

Chain of Dual specificity protein phosphatase 3 (P51452 whole entry): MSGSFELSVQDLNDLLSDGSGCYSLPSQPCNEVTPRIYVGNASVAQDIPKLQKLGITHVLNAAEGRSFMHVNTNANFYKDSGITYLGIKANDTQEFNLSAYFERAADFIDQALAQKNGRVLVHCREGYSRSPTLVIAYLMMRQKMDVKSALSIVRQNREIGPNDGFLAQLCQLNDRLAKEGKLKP
Chain of Metabotropic glutamate receptor 4 (Homo sapiens, UniProt Q14833) (Q14833 whole entry): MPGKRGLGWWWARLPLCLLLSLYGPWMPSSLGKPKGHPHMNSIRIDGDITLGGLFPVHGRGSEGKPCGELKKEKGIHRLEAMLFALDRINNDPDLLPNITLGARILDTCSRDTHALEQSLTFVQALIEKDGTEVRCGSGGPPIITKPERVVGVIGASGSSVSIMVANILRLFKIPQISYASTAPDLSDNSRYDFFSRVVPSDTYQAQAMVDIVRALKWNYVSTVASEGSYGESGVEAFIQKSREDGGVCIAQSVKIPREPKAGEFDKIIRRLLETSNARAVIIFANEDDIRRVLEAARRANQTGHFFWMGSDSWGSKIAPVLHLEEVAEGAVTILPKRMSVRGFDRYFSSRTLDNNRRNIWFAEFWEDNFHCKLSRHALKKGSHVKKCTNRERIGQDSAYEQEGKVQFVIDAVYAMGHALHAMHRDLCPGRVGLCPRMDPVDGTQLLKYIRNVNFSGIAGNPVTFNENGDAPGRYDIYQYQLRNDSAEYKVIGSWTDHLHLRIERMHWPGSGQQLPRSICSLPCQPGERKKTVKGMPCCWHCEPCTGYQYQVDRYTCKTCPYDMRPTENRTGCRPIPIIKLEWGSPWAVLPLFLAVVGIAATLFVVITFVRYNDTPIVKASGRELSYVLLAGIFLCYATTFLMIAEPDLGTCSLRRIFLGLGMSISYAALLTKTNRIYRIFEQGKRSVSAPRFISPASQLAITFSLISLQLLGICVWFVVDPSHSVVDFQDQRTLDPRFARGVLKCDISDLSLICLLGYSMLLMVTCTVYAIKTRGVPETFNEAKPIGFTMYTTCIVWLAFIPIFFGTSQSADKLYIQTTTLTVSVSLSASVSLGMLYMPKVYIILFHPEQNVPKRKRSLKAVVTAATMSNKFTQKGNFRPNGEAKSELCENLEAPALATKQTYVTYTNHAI
Chain of Photoreceptor-specific nuclear receptor (Q9Y5X4 whole entry): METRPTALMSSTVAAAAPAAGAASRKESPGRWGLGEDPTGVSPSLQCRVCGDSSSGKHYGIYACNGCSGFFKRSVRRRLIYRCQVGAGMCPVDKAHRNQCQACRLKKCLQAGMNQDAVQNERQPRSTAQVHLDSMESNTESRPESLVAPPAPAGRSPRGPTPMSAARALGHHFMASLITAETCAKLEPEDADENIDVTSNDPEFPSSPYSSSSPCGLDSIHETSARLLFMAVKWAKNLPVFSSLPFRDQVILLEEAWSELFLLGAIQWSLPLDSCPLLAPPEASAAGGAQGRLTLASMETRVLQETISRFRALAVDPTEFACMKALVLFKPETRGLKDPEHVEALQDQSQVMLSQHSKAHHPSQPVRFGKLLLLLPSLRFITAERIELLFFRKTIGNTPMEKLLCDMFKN

Regarding `O=C(Nc1ccc(Cl)c(Cl)c1)c1ccsc1`, the figures for the EC50 in [1] and in [2] were 12.7 µM (active) and 9.23 µM (active), respectively.
Regarding `CCOC(=O)c1sc(N/N=C/c2cccc(O)c2)nc1C`, in experiment [3], the Ki was 120 µM (inactive).
On to `O=C(Nc1ccc2c(c1)OCCO2)c1coc2ccccc2c1=O`, for which the EC50 on Caspase-3 is > 85.3 µM (inactive); at Caspase-7 it was > 85.3 µM (inactive); in [5], > 195 µM (not active). The AC50 in [4] is 46 µM (active).
As to `O=C1c2n[nH]c(-c3ccccc3O)c2C(c2cccc(Cl)c2)N1Cc1ccco1` (stereo not drawn), the EC50 in experiment [6] was 9.83 µM (active); in [7], 6.78 µM (active); in the experiment with Streptococcus it was > 150 µM (inconclusive); in [8], 7.07 µM (active). Also, the “Absolute IC50 (XBP1)” value at X-box-binding protein 1 is 10 µM.
Regarding `CN(C)CCNc1c2c(nc3ccccc13)CCC2`, the figures for the IC50 in experiment [9] and in [10] were 32.8 µM (active) and 99.1 µM (active), respectively.
As for `COc1cccc(NC(=S)Nc2cc(C)cc(C)n2)c1`, the IC50 in experiment [11] is 2.04 µM (active); in experiment [12], 1.61 µM (active); in experiment [13], > 66 µM (inactive); in experiment [14] it was > 66 µM (inactive).

The EC50 is the concentration that produces a half-maximal response. The term Ki denotes a measure of affinity in units of concentration, obtained from inhibition or displacement. What is called AC50 is the concentration giving half of the maximal activity seen.
